Measured values taken from patent US20060111305A1, “Metabolites of certain [1,4]diazepino[6,7,1-ij]quinoline derivatives and methods of preparation and use thereof” (Wyeth, priority 2004, published 2006).

How the values were obtained:
[1] = Metabolites of DCDQ generated by liver microsomes and hepatocytes, LC/MS characterization (Table 6); assay type: in vitro ADME; conditions: MM mouse, RM rat, DM dog, HM human liver microsomes; HH human hepatocytes
Excerpt: An Agilent Model 1100 HPLC system (Agilent Technologies, Palo Alto, Calif.) including an autosampler and diode array UV detector was used for LC/MS analysis. The UV detector was set to monitor 200 to 400 nm. For selected LC/MS analysis, radiochromatograms were acquired using a β-Ram model 3 radioactivity flow detector (IN/US Systems Inc., Tampa, Fla.) equipped with a solid scintillant flow cell. Separations were accomplished on a Phenomenex Luna C18(2) column (2×150 mm, 5 μm) under the same conditions as described above.
(§1) The mass spectrometer used for metabolite characterization was a Micromass Q-TOF-2 quadrupole time-of-flight hybrid mass spectrometer (Nature Corp.). The mass spectrometer was equipped with an electrospray ionization (ESI) interface and operated in the positive ionization mode. Collision energy settings of 5 and 30 eV were used for full MS and MS/MS scans, respectively. Settings for the mass spectrometer are listed below.
Mass spectra were obtained by LC/MS and LC/MS/MS analysis for DCDQ and its metabolites.

[2] = Metabolites of DCDQ identified in rats by LC/MS analysis (Table 18); assay type: in vivo, Sprague-Dawley rats; conditions: P = plasma, U = urine, B = brain, F = feces
Experimental: An Agilent Model 1100 HPLC system (Agilent Technologies, Wilmington, Del.) including an autosampler and diode array UV detector was used for LC/MS analysis of plasma and urine samples. The UV detector was set to monitor 200 to 400 nm. For selected LC/MS analyses, radiochromatograms were acquired using a β-Ram model 3 radioactivity flow detector (IN/US Systems Inc., Tampa, Fla.) equipped with a solid scintillant flow cell. Fecal samples were also analyzed using a Waters Alliance model 2690 HPLC system. It was equipped with a built-in autosampler and a model 996 diode array UV detector set to 210-350 nm. The HPLC flow was split between a Radiomatic model 150TR flow scintillation analyzer (Perkin Elmer) and the mass spectrometer. Other HPLC conditions were the same as condition B described above.
as §1, with “characterization for plasma and urine” for “characterization”, “(Waters).” for “(Nature Corp.).”
A Micromass Quattro Micro mass spectrometer (Waters) was also used to analyze the fecal samples. It was equipped with an electrospray ionization (ESI) interface and operated in the positive ionization mode. Settings for the mass spectrometer are listed below.
LC/MS/MS in the selected reaction-monitoring (SRM) mode (LC/SRM) was conducted with the triple quadruple mass spectrometer to monitor DCDQ and its metabolites in fecal samples. The transitions monitored are listed below.

[3] = Incubation of [14C]DCDQ with dog liver microsomes; assay type: in vitro ADME, beagle dogs
Experimental: (§2) [^14C]DCDQ was mixed with non-radiolabeled DCDQ (1:3 or 1:5) in the incubations. Microsomal incubations consisted of [^14C]DCDQ, magnesium chloride (10 mM) and liver microsomes incubated in 0.5 mL of 0.1 M potassium phosphate buffer, pH 7.4. [^14C]DCDQ (20 μL) in water was added to the incubation tubes containing buffer, magnesium chloride solution and microsomes. After mixing, the tubes were pre-incubated for 2 minutes in a shaking water bath at 37° C. The reactions were initiated by the addition of UDPGA or the NADPH regenerating system. UDPGA was added to incubations as a 50 μL aliquot of a 20 mM solution in water, to give a final concentration of 2 mM. An NADPH regenerating system (30 μL) was added to incubations to evaluate CYP450-mediated metabolism. The NADPH regenerating system consisted of glucose-6-phosphate (2 mg/mL), glucose-6-phosphate dehydrogenase (0.8 units/mL) and NADP^+ (2 mg/mL). Control incubations were conducted under the same conditions, but without the NADPH generating system, UDPGA or microsomes. All incubations were performed in duplicate. Incubations were stopped by the addition of 0.5 mL ice-cold methanol. Samples were vortex-mixed. Denatured proteins were separated by centrifugation at 4300 rpm and 4° C. for 10 minutes (Model T21 super centrifuge, Sorvall). The protein pellets were extracted with 0.5 mL of methanol. The supernatant was combined for each sample, mixed and evaporated to a volume of about 0.3 mL under a nitrogen stream in a Zymark TurboVap LV evaporator (Caliper Life Science, Hopkinton, Mass.). The concentrated sample was centrifuged and aliquots were radioassayed and analyzed by HPLC. This method recovered an average of 92.1% of the radioactivity from the reaction mixture.
(§3) To evaluate species differences in cytochrome P450- and UGT-mediated metabolism, [^14C]DCDQ was incubated for 20 minutes with 0.5 mg/mL liver microsomal proteins from mice, rats, dogs or humans in the presence of the NADPH regenerating system or UDPGA. The assay conditions were the same as described above, and DCDQ concentrations were 12 μM and 56 μM for cytochrome P450- and UGT-mediated metabolism, respectively.
(§4) A Waters model 2690 HPLC system (Waters Corp., Milford, Mass.) with a built-in autosampler was used for analysis. Separations were accomplished on a Phenomenex Luna C18(2) column (2×150 mm, 5 μm) (Phenomenex, Torrance, Calif.) coupled with a filter (4×2 mm) cartridge. A variable wavelength UV detector set to monitor 250 nm and Flo-One β Model A525 radioactivity flow detector (Perkin Elmer) with a 250 μL LQTR flow cell were used for data acquisition. The flow rate of Ultima Flow M scintillation fluid was 1 mL/min, providing a mixing ratio of scintillation cocktail to mobile phase of 5:1. […]

[4] = Incubation of [14C]DCDQ with rat liver microsomes; assay type: in vitro ADME, Sprague Dawley rats
Experimental: as §2, §3, §4

[5] = NADPH regenerating system, 12 μM DCDQ, 20 min

| Compound | Source [1] | Matrix [2] | metabolite detected in microsomal incubation [3, 5] | metabolite detected in microsomal incubation [4, 5] | metabolite detected in microsomal incubation ([3]; UDPGA, 56 μM DCDQ) | metabolite detected in microsomal incubation ([4]; UDPGA, 56 μM DCDQ) |
| --- | --- | --- | --- | --- | --- | --- |
| c1cc2c3c(c1)[C@H]1CCC[C@H]1CN3CCNC2 [DCDQ, (9aR,12aS)-4,5,6,7,9,9a,10,11,12,12a-decahydro-cyclopenta[c][1,4]diazepine[6,7,1-ij]quinoline, reference compound] | MM, RM, DM, HM, HH | P, U, F |  |  |  |  |
| OC1CN2C[C@@H]3CCC[C@@H]3c3cccc(c32)CN1 (some centres unmarked) [Metabolite M1, hydroxy DCDQ] | HM, HH | P, U, B | not detected | not detected |  |  |
| OC1[C@@H]2CCC[C@@H]2c2cccc3c2N1CCNC3 (some centres unmarked) [Metabolite M2, hydroxy DCDQ] | MM, RM, DM, HM, HH | P, U | observed | observed |  |  |
| [O-][N+]12CCN=Cc3cccc(c31)[C@H]1CCC[C@H]1C2 (some centres unmarked) [Metabolite M5, DCDQ imine N-oxide] | DM, HM, HH |  | detected | not mouse or rat |  |  |

More lines, now with the values ahead:

| Source [1] | Matrix [2] | metabolite detected in microsomal incubation [3, 5] | metabolite detected in microsomal incubation [4, 5] | metabolite detected in microsomal incubation ([3]; UDPGA, 56 μM DCDQ) | metabolite detected in microsomal incubation ([4]; UDPGA, 56 μM DCDQ) | Compound |
| --- | --- | --- | --- | --- | --- | --- |
| DM, HM, HH |  |  |  | detected | not mouse or rat | O=C(O)[C@H]1O[C@@H](OC(=O)N2CCN3C[C@@H]4CCC[C@@H]4c4cccc(c43)C2)[C@H](O)[C@@H](O)[C@@H]1O [Metabolite M6, carbamoyl glucuronide of DCDQ] |
|  | P, U, B |  |  |  |  | O=C1CC[C@@H]2c3cccc4c3N(CCNC4)C[C@H]12 [Metabolite M7, 17-keto DCDQ] |
